Measured values published in patent US6517838B1, “Decorin binding protein essential peptides and methods of use” (The Texas A&M University System, priority 2000, dated 2003).
Values joined by “and” are separate entries in the source; they are usually repeats but may differ in a detail not shown here. Equal entries are not always repeated. Where two headings read alike, the source gives them in different places. Ends that are not written are not given here.

Columns and labels:
[1] = test system: B. burgdorferi strain B31; assay: Arthritis assessment, histopathology of hind tibiotarsal joints of immunized infected mice; type: in vivo; conditions: for % Incidence (arthritis): immunized mice, tibiotarsal joint histology; for % Incidence (arthritis) / Mean Arthritis Rating: day 14 post infection; for Mean Arthritis Rating: severity score 0-4 by neutrophil infiltrate
Description: (§1) Mice were immunized with recombinant DbpA (SEQ ID 1), P2 (SEQ ID 3), P4 (SEQ ID 5), P5 (SEQ ID 6), P4/P5 (SEQ ID 5/SEQ ID 6), P9 (SEQ ID 10), or the corresponding lysine modified counterparts (P2 Mod, P4 Mod, P5 Mod or P9 Mod) using the immunization schedule established by Hanson (11). Briefly, mice were immunized with 20 μg of protein or peptide in complete Freund's adjuvant (CFA) (Week 1), boosted at week 4 with the same dose in incomplete Freund's adjuvant (IFA) and infected at week 6.
Mice (15 mice/group) were anesthetized with Metofane (methoxyflurane; Pitman-Moore, Mundelein, Ill.) and 10 mice/ group were infected i.d. at the base of the tail with 10^4 Borrelia in 100 μl of media 6 six weeks after the first immunization. The remaining 5 mice/group were tested for a DTH response to recombinant DbpA. Following infection, mice were bled 7 and 14 days postinfection. Serum was collected for antibody analysis and blood cultured for the detection of live spirochetes by inoculating 5 ml of BSK II medium with 50 μl of blood from each infected mouse and cultured for 2 weeks at 34° C. as described above. Also on day 14 postinfection, mice were sacrificed and one hind tibiotarsal joint, heart, bladder, and a 3 mm skin biopsy from the ear were aseptically removed and inoculated into separate tubes containing 6 ml of BSK II medium with antibiotics (50 μg/ml rifampacin and 100 μg/ml phosphomycin (Sigma), and incubated for 2 weeks at 34° C. as described above. Evidence of arthritis was determined by histopathological examination of formalin-fixed hind tibiotarsal joint samples.
Evidence of arthritis was determined by histopathological examination of formalin-fixed hind tibiotarsal joint samples. Tissues for histological examination were embedded in paraffin and stained with hematoxylin and eosin. All sections were examined without knowledge of the vaccination status of the mouse. Arthritis was scored by one of two methods. A positive/negative assessment was used, as well as assignment of an arthritis severity score. Joints were scored according to the levels of infiltrate (neutrophils) as follows: 0, no arthritis, 1, minimal or rare (≦10% tissue involvement); 2, mild (10-20%); […]; and 4, severe (>50%).
A similar trend was also observed for joints examined for arthritis (Table I). DbpA-(SEQ ID 1), P4-(SEQ ID 5), and P5-(SEQ ID 6) immunized mice had the lowest arthritis ratings (0.2, 1.2, and 0.4, respectively) and lowest arthritis incidence (20, 60, and 20%, respectively).

[2] = test system: B. burgdorferi strain B31; assay: Joint cultures for spirochetes after infection of immunized mice; type: in vivo; conditions: immunized C3H/HeJ mice, joints 14 days post infection
Description: as §1
Low-passage B. burgdorferi strain B31 (passage 5) was used in this study and cultured in BSK II (Barbour-Stoenner-Kelly) medium at 34° C. (22). Bacterial cultures were incubated in CO2-enriched atmosphere in a GasPak chamber (BBL, Baltimore, Md.) containing BBL GasPak Plus envelopes and a GasPak anaerobic indicator (Beckton dickinson, Cockeysville, Md.) until the cells reached log phase. Bacterial counts were determined using dark field microscopy and a Petroff-Hausser chamber.
Mice (15 mice/group) were anesthetized with Metofane (methoxyflurane; Pitman-Moore, Mundelein, Ill.) and 10 mice/ group were infected i.d. at the base of the tail with 10^4 Borrelia in 100 μl of media 6 six weeks after the first immunization. The remaining 5 mice/group were tested for a DTH response to recombinant DbpA. Following infection, mice were bled 7 and 14 days postinfection. […]

[3] = molecular target: T1, decorin (Bos taurus, UniProt P21793); assay: Inhibition ELISA: decorin attachment to DbpA-coated wells; type: binding, bovine; conditions: 5 μg inhibitor pre-incubated with biotin-conjugated decorin, FIG. 3
T1 construct: Decorin from bovine fetal skin was purified and stored in 4 M guanidine hydrochloride; from tissue; host or cells: decorin from bovine fetal skin; DbpA made in E. coli JM101
Description: Immulon-1 microtiter plate wells were coated with 0.4 μg of DbpA in 50 μl of PBS over night at 4° C. The wells were washed and then blocked as described above. During the blocking step, 0.12 μg/ml of biotin-conjugated decorin was pre-incubated at 37° C. with 5 μg of each DbpA-derived peptide or DbpA. After washing, 100 μl of the biotin conjugated decorin/inhibitor mixture was added to the wells and incubated for 1 h. After washing, the wells were incubated with AP-conjugated streptavidin and developed as described above.
(§2) Decorin from bovine fetal skin was purified and stored in 4 M guanidine hydrochloride at −80° C. and dialyzed extensively against PBS before use. Decorin was labeled with digoxigenin-3-O-methylcarbonyl-ε-aminocaproic acid-N-hydroxy-succinimide ester (digoxigenin) (Boehringer Mannheim, Indianapolis. Ind.) according to the manufacturer's instructions and stored at −20° C. To label decorin with biotin, 7.5 mg of NHS-LC-Biotin (sulfosuccinimidyl-6-(biotinamido) hexanoate) (Pierce, Rockford, Ill.) was dissolved in 100 μl of dimethyl sulfoxide and combined with 0.5 mg of decorin and 0.5 ml of 0.2 M sodium borate (pH 8.0) in a total reaction volume of 1 ml.
Confirmation of the critical binding sites in DbpA for decorin and of the biophysical stability of these peptides was tested in an inhibition ELISA. DbpA, peptides P2-P9, chemically modified peptides P2 Mod-P9 Mod, and an irrelevant peptide from the Staphylococcus aureus collagen-binding adhesin, CNA4 (OSKITVDNTKNTIDVTIQG) (SEQ ID 36) were used as inhibitors of decorin attachment to DbpA-coated wells.

[4] = test system: recombinant DbpA; assay: Delayed-type hypersensitivity (DTH) to DbpA, footpad swelling in immunized mice; type: in vivo, B. burgdorferi; conditions: C3H/HeJ mice immunized with 20 μg, challenged with 2 μg recombinant DbpA in footpad, 24 h
Description: as §1
Native C3H/HeJ mice immunized with DbpA (SEQ ID 1), P2 (SEQ ID 3), P4 (SEQ ID 5), P5 (SEQ ID 6), P4/P5 (SEQ ID 5/SEQ ID 6), P9 (SEQ ID 10), or the corresponding lysine modified counterparts (P2 Mod, P4 Mod, P5 Mod or P9 Mod) were challenged with 2 μg of recombinant DbpA in PBS (50 μl/footpad) 7 weeks after the initial immunization. All footpads were measured before and 24 h after challenge using a spring-loaded micrometer (Mitutoyo, Tokyo, Japan) as described (23). The mice were anesthetized as described above during footpad measurements and injections. Swelling was determined by subtracting the footpad measurements before challenge from those taken 24 h after challenge.
DTH is an in vivo method of testing T cell-dependent immune responses that are manifested by inflammation at the site of antigenic challenge. Mice immunized with DbpA (SEQ ID 1), P2 (SEQ ID 3), P4 (SEQ ID 5), P5 (SEQ ID 6), P4/P5 (SEQ ID 5/SEQ ID 6) combined, P9 (SEQ ID 10), or the corresponding lysine-modified peptides were challenged in the footpad with 2 μg of recombinant DbpA (SEQ ID 1). Footpad measurements were taken before and after challenge as described above. DbpA (SEQ ID 1)-immunized mice developed a significant footpad swelling of 53.3±3.5 (not shown) compared to mice immunized with adjuvant alone or naive mice receiving only the DbpA (SEQ ID 1) challenge. Peptide-immunized mice, with the exception of P2 (SEQ ID 3), also developed a significant DTH response to DbpA (SEQ ID 1) compared to the lysine-modified controls.

[5] = molecular target: T2, decorin from bovine fetal skin (bovine), P21793; assay: inhibition ELISA: biotin-conjugated decorin pre-incubated with 5 ug peptide, added to DbpA-coated wells
T2 chain: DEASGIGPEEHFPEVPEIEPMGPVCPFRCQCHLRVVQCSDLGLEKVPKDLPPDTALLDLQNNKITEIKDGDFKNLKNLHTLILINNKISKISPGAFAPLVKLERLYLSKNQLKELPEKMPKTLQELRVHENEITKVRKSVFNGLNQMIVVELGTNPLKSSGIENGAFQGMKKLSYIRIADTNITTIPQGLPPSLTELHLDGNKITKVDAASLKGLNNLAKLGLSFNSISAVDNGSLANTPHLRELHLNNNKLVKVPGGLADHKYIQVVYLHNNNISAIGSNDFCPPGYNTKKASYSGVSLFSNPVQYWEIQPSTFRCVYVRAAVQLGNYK

[6] = molecular target: T2, decorin from bovine fetal skin …; assay: as above
[7] = molecular target: T1, decorin; assay: Western ligand blot with digoxigenin-labeled decorin; type: binding, bovine; conditions: SDS-PAGE reducing, probed with digoxigenin-labeled decorin
Description: as §2
Proteins (purified DbpA, DbpA site-directed mutants and OspC) were subjected to SDS-PAGE (reducing conditions) and probed with rabbit anti-DbpA polyclonal sera (R625) or with digoxigenin-labeled decorin.
Further, the side chains of lysine residues were chemically modified and the binding properties of the resulting protein examined. […] Both forms of DbpA migrated as two bands, monomers at 20 and 21 kDa and dimers at 40 and 42 kDa for DbpA and chemically modified DbpA (K-mod), respectively. The decorin binding activity of the DbpA and lysine-modified DbpA was examined in a Western ligand blot assay (FIG. 6B).

[8] = molecular target: T1, decorin; assay: Binding of biotin-conjugated decorin to protein-coated microtiter wells; parameters: species or system bovine; conditions: 0.4 μg protein coated, 0.12 μg/ml biotin-decorin, compared to wild-type DbpA
Description: as §2
Immulon-1 microtiter plate wells (Dynatech Labs, Chantilly, Va.) were coated with 0.4 μg of DbpA (SEQ ID 1), DbpA mutants and K-mod in 50 μl PBS overnight at 4° C. The wells were washed and then blocked with 200 μl of Super Block (Pierce) for 1 h. After washing, 0.12 μg/ml of biotin-conjugated decorin in 100 μl of Super Block was added to the wells and incubated for 1 h. After washing, 100 μl of a 1:10,000 dilution of alkaline phosphatase (AP)-conjugated streptavidin (1 U/ml) (Boehringer Mannheim) was added and incubated for 1 h. […] The absorbance was determined in a Microplate Reader (Molecular Devices, Menlo Park, Calif.). […]

P5: synthetic 25 amino acid DbpA peptide that maps to the K82 region (AKVRATTVAEKFVIAIEEEATKLKE) [Peptide P5]
arthritis incidence and severity (in words) ([1]; immunized infected mice): lowest | % Incidence (arthritis) [1]: 20% | Mean Arthritis Rating [1]: 0.4 | positive joint cultures [2]: 60% | inhibition of decorin attachment to DbpA-coated wells [3]: 92% | DTH response to DbpA (in words) [4]: significant responses

P9: synthetic 25 amino acid DbpA peptide containing K163 and K170 (REKLQRVHKKNQDTLKKKNTEDSTAKS) [Peptide P9]
Mean Arthritis Rating [1]: 1.25 | inhibition of decorin attachment to DbpA-coated wells [3]: 42% and 43% | DTH response to DbpA (in words) [4]: response greater than that of control groups but with less intensity

P5 Mod: lysine modified counterpart of P5 (AKVRATTVAEKFVIAIEEEATKLKE; also: chemically modified lysines)
% Incidence (arthritis) [1]: 100% | Mean Arthritis Rating [1]: 3.2

P4 Mod: lysine modified counterpart of P4 (DAFKDKKTGSGVSENPFILEAKVRA; also: chemically modified lysines)
% Incidence (arthritis) [1]: 2.0% | Mean Arthritis Rating [1]: 2.0

P9 Mod: lysine modified counterpart of P9 (REKLQRVHKKNQDTLKKKNTEDSTAKS; also: chemically modified lysines)
% Incidence (arthritis) [1]: 80% | Mean Arthritis Rating [1]: 2.0

P2: overlapping synthetic 25 amino acid peptide of recombinant DbpA, contains a cystine residue (LLISCGLTGATKIKLESSAKAIVD) [Peptide P2]
Mean Arthritis Rating [1]: 1.4 | inhibition of decorin attachment to DbpA-coated wells [3]: 44% and 42% | DTH response to DbpA (in words) [4]: no response

P4: synthetic 25 amino acid DbpA peptide that maps to the K82 region (DAFKDKKTGSGVSENPFILEAKVRA) [Peptide P4]
% Incidence (arthritis) [1]: 60% | Mean Arthritis Rating [1]: 1.2 | inhibition of decorin attachment to DbpA-coated wells [3]: 64% | DTH response to DbpA (in words) [4]: response greater than that of control groups but with less intensity

REKLQRVHKKNQDTLKKKNTEDSTAKS (modifications not checked) [DbpA-derived synthetic peptide P9]
inhibition of decorin attachment to DbpA-coated wells [5]: 42% | inhibition of decorin attachment to DbpA-coated wells [6]: 43%

DAFKDKKTGSGVSENPFILEAKVRA (modifications not checked) [DbpA-derived synthetic peptide P4]
inhibition of decorin attachment to DbpA-coated wells [5]: 64%

AKVRATTVAEKFVIAIEEEATKLKE (modifications not checked) [DbpA-derived synthetic peptide P5]
inhibition of decorin attachment to DbpA-coated wells [5]: 92%

B1: K-mod: DbpA with lysine residues chemically modified by DL-glyceraldehyde and sodium cyanoborohydride (protein)
chain: ATKIKLESSAKAIVDEIDAIKKKAASMGVNFDAFKDKKTGSGVSENPFILEAKVRATTVAEKFVIAIEEEATKLKETGSSGEFSAMYDLMFEVSKPLQELGIQEMTKTVSMAAEENPPTTAQGVLEIAKKMREKLQRVHKKNQDTLKKKNTEDSTAKS
modifications: left off: small tags and cut ends
notes: DbpA with lysine residues chemically modified by DL-glyceraldehyde and sodium cyanoborohydride
decorin binding in Western ligand blot [7]: loss of decorin binding | binding of biotin-conjugated decorin to coated microtiter wells [8]: essentially unable to support the binding of decorin
